Legend:
Chinese sprangletop = assay: Test Example 3: herbicidal effect by foliage application, Wagner pot (Table 18, symbol D); assay type: in vivo, chinese sprangletop (Leptochloa chinensis); conditions: for herbicidal effect on Chinese sprangletop (D): 320 g/ha
Summary of the method: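 Plants were sown in alluvial soil held under 0.1–0.5 cm standing water and grown 14 days in a greenhouse at 25–30 °C. An emulsifiable formulation, water-diluted to the set dose, was then sprayed onto the foliage, and effects were scored three weeks later using previously defined criteria.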

chickweed = assay: Test Example 5: herbicidal effect by foliage application, plastic box (Table 20, symbol P); assay type: in vivo, common chickweed (Stellaria media); conditions: for Herbicidal effect by foliage application, P: chickweed: amount of applied herbicide 320 g/ha, foliage application after 14-day growth, evaluated three weeks after application
Summary of the method: (§1)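 Plants sown in sterilized diluvial soil and grown 14 days in a greenhouse at 25° C to 30° C, then sprayed on the foliage with the compound's emulsion diluted in water to a predetermined herbicide amount. Injury to weeds and crops scored three weeks after application on a visual rating scale.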

velvetleaf [1] = assay: Test Example 5: herbicidal effect by foliage application, plastic box (Table 20, symbol M); assay type: in vivo, velvetleaf (Abutilon theophrasti); conditions: for Herbicidal effect by foliage application, M: velvetleaf: amount of applied herbicide 320 g/ha, foliage application after 14-day growth, evaluated three weeks after application
Summary of the method: as §1

velvetleaf [2] = assay: Test Example 4: herbicidal effect by soil treatment (Table 19, symbol M); assay type: in vivo, velvetleaf (Abutilon theophrasti); conditions: amount of applied herbicide 320 g/ha
Summary of the method: (§2)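 Three weeks of greenhouse growth at 25° C. to 30° C. followed a uniform surface spray of water-diluted emulsion at a predetermined herbicide amount. Seeds had been sown beforehand under about 1.5 cm of sterilized diluvial soil. Grading followed criteria set out in an earlier test.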

lambsquarters = assay: Test Example 4: herbicidal effect by soil treatment (Table 19, symbol O); assay type: in vivo, lambsquarters (Chenopodium album); conditions: amount of applied herbicide 320 g/ha
Summary of the method: as §2

wild oat [3] = assay: Test Example 4: herbicidal effect by soil treatment (Table 19, symbol I); assay type: in vivo, wild oat (Avena fatua); conditions: amount of applied herbicide 320 g/ha
Summary of the method: as §2

redroot pigweed [4] = assay: Test Example 5: herbicidal effect by foliage application, plastic box (Table 20, symbol N); assay type: in vivo, redroot pigweed (Amaranthus retroflexus); conditions: for Herbicidal effect by foliage application, N: redroot pigweed: amount of applied herbicide 320 g/ha, foliage application after 14-day growth, evaluated three weeks after application
Summary of the method: as §1

redroot pigweed [5] = assay: Test Example 4: herbicidal effect by soil treatment (Table 19, symbol N); assay type: in vivo, redroot pigweed (Amaranthus retroflexus); conditions: amount of applied herbicide 320 g/ha
Summary of the method: as §2

blackgrass [6] = assay: Test Example 4: herbicidal effect by soil treatment (Table 19, symbol J); assay type: in vivo, blackgrass (Alopecurus myosuroides); conditions: amount of applied herbicide 320 g/ha
Summary of the method: as §2

southern crabgrass = assay: Test Example 4: herbicidal effect by soil treatment (Table 19, symbol F); assay type: in vivo, southern crabgrass (Digitaria ciliaris); conditions: amount of applied herbicide 320 g/ha
Summary of the method: as §2

barnyard grass [7] = assay: Test Example 5: herbicidal effect by foliage application, plastic box (Table 20, symbol H); assay type: in vivo, barnyard grass (Echinochloa crus-galli); conditions: for Herbicidal effect by foliage application, H: barnyard grass: amount of applied herbicide 320 g/ha, foliage application after 14-day growth, evaluated three weeks after application
Summary of the method: as §1

barnyard grass [8] = assay: Test Example 4: herbicidal effect by soil treatment (Table 19, symbol H); assay type: in vivo, barnyard grass (Echinochloa crus-galli); conditions: amount of applied herbicide 320 g/ha
Summary of the method: as §2

oval-leafed pondweed = assay: Test Example 1: herbicidal activity, application before weed generation under submerged conditions (Table 16, symbol C); assay type: in vivo, oval-leafed pondweed (Monochoria vaginalis); conditions: amount of applied herbicide 320 g/ha
Summary of the method: (§3)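 Emulsion formulation, water-diluted to set dose, was put onto the flooded surface (4 cm depth, alluvial soil) the same day weeds were sown and 2.5-leaf rice transplanted. After 3 weeks at 25-30 °C under glass, each species was rated 0 (≤5% kill) to 5 (≥90% kill).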

Japanese bulrush = assay: Test Example 1: herbicidal activity, application before weed generation under submerged conditions (Table 16, symbol B); assay type: in vivo, Japanese bulrush (Schoenoplectus juncoides); conditions: amount of applied herbicide 320 g/ha
Summary of the method: as §3

wild oat [9] = assay: Test Example 5: herbicidal effect by foliage application, plastic box (Table 20, symbol I); assay type: in vivo, wild oat (Avena fatua); conditions: for Herbicidal effect by foliage application, I: wild oat: amount of applied herbicide 320 g/ha, foliage application after 14-day growth, evaluated three weeks after application
Summary of the method: as §1

blackgrass [10] = assay: Test Example 5: herbicidal effect by foliage application, plastic box (Table 20, symbol J); assay type: in vivo, blackgrass (Alopecurus myosuroides); conditions: for Herbicidal effect by foliage application, J: blackgrass: amount of applied herbicide 320 g/ha, foliage application after 14-day growth, evaluated three weeks after application
Summary of the method: as §1

[11] = foliage application, 320 g/ha, evaluated 3 weeks after application

Row | SMILES | herbicidal effect on Chinese sprangletop (D) (Chinese sprangletop) | Herbicidal effect by foliage application, P: chickweed (chickweed) | Herbicidal effect by foliage application, M: velvetleaf (velvetleaf [1]) | Herbicidal effect by soil treatment, M: velvetleaf (velvetleaf [2]) | Herbicidal effect by soil treatment, O: lambsquarters (lambsquarters) | Herbicidal effect by soil treatment, I: wild oat (wild oat [3]) | Herbicidal effect by foliage application, N: redroot pigweed (redroot pigweed [4]) | Herbicidal effect by soil treatment, N: redroot pigweed (redroot pigweed [5]) | Herbicidal effect by soil treatment, J: blackgrass (blackgrass [6]) | Herbicidal effect by soil treatment, F: southern crabgrass (southern crabgrass) | Herbicidal effect by foliage application, H: barnyard grass (barnyard grass [7]) | Herbicidal effect by soil treatment, H: barnyard grass (barnyard grass [8]) | Herbicidal effect, C: oval-leafed pondweed (oval-leafed pondweed) | Herbicidal effect, B: Japanese bulrush (Japanese bulrush) | Herbicidal effect by foliage application, I: wild oat (wild oat [9]) | Herbicidal effect by foliage application, J: blackgrass (blackgrass [10]) | M: velvetleaf, herbicidal effect grade (velvetleaf [2]) | O: lambsquarters, herbicidal effect grade (lambsquarters) | I: wild oat, herbicidal effect grade (wild oat [3]) | N: redroot pigweed, herbicidal effect grade (redroot pigweed [5]) | further results
1 | Cc1nn(C)c(=O)c(-c2c(-c3ccccc3OC(F)(F)F)sc3c(Cl)cccc23)c1O [4-076] | 3 (Herbicidal rate of 40% or more and less than 70%) | 5 (Herbicidal rate of 90% or more (almost completely withered)) | 4 (Herbicidal rate of 70% or more and less than 90%) | 2 (Herbicidal rate of 20% or more and less than 40%) | 3 (Herbicidal rate of 40% or more and less than 70%) | 0 (Herbicidal rate of 5% or less (almost no effect)) | 5 (Herbicidal rate of 90% or more (almost completely withered)) | 4 (Herbicidal rate of 70% or more and less than 90%) | 0 (Herbicidal rate of 5% or less (almost no effect)) | 0 (Herbicidal rate of 5% or less (almost no effect)) | 3 (Herbicidal rate of 40% or more and less than 70%) | 0 (Herbicidal rate of 5% or less (almost no effect)) | 0 (Herbicidal rate of 5% or less (almost no effect)) | 3 (Herbicidal rate of 40% or more and less than 70%) | 0 (Herbicidal rate of 5% or less (almost no effect)) | 0 (Herbicidal rate of 5% or less (almost no effect)) | – | – | – | – | –
2 | COc1ccc(-c2sc3c(C)cccc3c2-c2c(O)c(C)nn(C)c2=O)cc1 [4-110] | 0 (Herbicidal rate of 5% or less (almost no effect)) | 5 (Herbicidal rate of 90% or more (almost completely withered)) | 5 (Herbicidal rate of 90% or more (almost completely withered)) | 3 (Herbicidal rate of 40% or more and less than 70%) | 5 (Herbicidal rate of 90% or more (almost completely withered)) | 0 (Herbicidal rate of 5% or less (almost no effect)) | 5 (Herbicidal rate of 90% or more (almost completely withered)) | 5 (Herbicidal rate of 90% or more (almost completely withered)) | 0 (Herbicidal rate of 5% or less (almost no effect)) | 0 (Herbicidal rate of 5% or less (almost no effect)) | 2 (Herbicidal rate of 20% or more and less than 40%) | 0 (Herbicidal rate of 5% or less (almost no effect)) | 4 (Herbicidal rate of 70% or more and less than 90%) | 5 (Herbicidal rate of 90% or more (almost completely withered)) | 0 (Herbicidal rate of 5% or less (almost no effect)) | 4 (Herbicidal rate of 70% or more and less than 90%) | – | – | – | – | –
3 | CCSc1ccc(-c2sc3c(C)cccc3c2-c2c(O)c(C)nn(C)c2=O)cc1 [4-124] | 3 (Herbicidal rate of 40% or more and less than 70%) | 5 (Herbicidal rate of 90% or more (almost completely withered)) | 5 (Herbicidal rate of 90% or more (almost completely withered)) | 3 (Herbicidal rate of 40% or more and less than 70%) | 5 (Herbicidal rate of 90% or more (almost completely withered)) | 0 (Herbicidal rate of 5% or less (almost no effect)) | 5 (Herbicidal rate of 90% or more (almost completely withered)) | 5 (Herbicidal rate of 90% or more (almost completely withered)) | 2 (Herbicidal rate of 20% or more and less than 40%) | 4 (Herbicidal rate of 70% or more and less than 90%) | 5 (Herbicidal rate of 90% or more (almost completely withered)) | 3 (Herbicidal rate of 40% or more and less than 70%) | 2 (Herbicidal rate of 20% or more and less than 40%) | 3 (Herbicidal rate of 40% or more and less than 70%) | 4 (Herbicidal rate of 70% or more and less than 90%) | 5 (Herbicidal rate of 90% or more (almost completely withered)) | – | – | – | – | –
4 | COc1ccc(-c2sc3cc(Cl)c(Cl)cc3c2-c2c(O)c(C)nn(C)c2=O)cc1 [5-043] | 3 (Herbicidal rate of 40% or more and less than 70%) | 5 (Herbicidal rate of 90% or more (almost completely withered)) | 4 (Herbicidal rate of 70% or more and less than 90%) | – | – | – | 3 (Herbicidal rate of 40% or more and less than 70%) | – | – | – | 0 (Herbicidal rate of 5% or less (almost no effect)) | – | 0 (Herbicidal rate of 5% or less (almost no effect)) | 2 (Herbicidal rate of 20% or more and less than 40%) | 0 (Herbicidal rate of 5% or less (almost no effect)) | 0 (Herbicidal rate of 5% or less (almost no effect)) | 0 (Herbicidal rate of 5% or less (almost no effect)) | 0 (Herbicidal rate of 5% or less (almost no effect)) | 0 (Herbicidal rate of 5% or less (almost no effect)) | 0 (Herbicidal rate of 5% or less (almost no effect)) | J: blackgrass, herbicidal effect grade (blackgrass [6]): 0 (Herbicidal rate of 5% or less (almost no effect)); F: southern crabgrass, herbicidal effect grade (southern crabgrass): 0 (Herbicidal rate of 5% or less (almost no effect)); H: barnyard grass, herbicidal effect grade (barnyard grass [8]): 0 (Herbicidal rate of 5% or less (almost no effect))
5 | Cc1ccc2oc(-c3ccc(SC(C)C)cc3)c(-c3c(O)c(C)nn(C)c3=O)c2c1 [9-059] | – | – | – | – | – | – | – | – | – | – | – | – | 3 (Herbicidal rate of 40% or more and less than 70%) | 3 (Herbicidal rate of 40% or more and less than 70%) | – | – | 3 (Herbicidal rate of 40% or more and less than 70%) | 5 (Herbicidal rate of 90% or more (almost completely withered)) | 0 (Herbicidal rate of 5% or less (almost no effect)) | 5 (Herbicidal rate of 90% or more (almost completely withered)) | Herbicidal effect on D (Chinese sprangletop), foliage application (Chinese sprangletop; amount of applied herbicide 320 g/ha): 3 (Herbicidal rate of 40% or more and less than 70%); P (chickweed) herbicidal effect grade (chickweed; [11]): 5 (Herbicidal rate of 90% or more (almost completely withered)); M (velvetleaf) herbicidal effect grade (velvetleaf [1]; [11]): 5 (Herbicidal rate of 90% or more (almost completely withered)); N (redroot pigweed) herbicidal effect grade (redroot pigweed [4]; [11]): 5 (Herbicidal rate of 90% or more (almost completely withered)); J: blackgrass, herbicidal effect grade (blackgrass [6]): 0 (Herbicidal rate of 5% or less (almost no effect)); F: southern crabgrass, herbicidal effect grade (southern crabgrass): 0 (Herbicidal rate of 5% or less (almost no effect)); H (barnyard grass) herbicidal effect grade (barnyard grass [7]; [11]): 3 (Herbicidal rate of 40% or more and less than 70%); H: barnyard grass, herbicidal effect grade (barnyard grass [8]): 1 (Herbicidal rate of 5% or more and less than 20%); I (wild oat) herbicidal effect grade (wild oat [9]; [11]): 3 (Herbicidal rate of 40% or more and less than 70%); J (blackgrass) herbicidal effect grade (blackgrass [10]; [11]): 1 (Herbicidal rate of 5% or more and less than 20%)
